Read-outs that look alike come from different tables or passages of the source.
What was measured:
human FXR = biological target: T1, human FXR (Homo sapiens, UniProt Q96RI1); experiment: Full-length FXR transactivation (reporter gene) assay in HeLa cells; format: cell-based; details: for Emax: HeLa; for EC50: read-out: hFXR: EC50; for FXR modulatory potency in words: SAR discussion
T1 construct: expressed in transfected cells; host or cells: HeLa
T1 sequence (Q96RI1 1-486): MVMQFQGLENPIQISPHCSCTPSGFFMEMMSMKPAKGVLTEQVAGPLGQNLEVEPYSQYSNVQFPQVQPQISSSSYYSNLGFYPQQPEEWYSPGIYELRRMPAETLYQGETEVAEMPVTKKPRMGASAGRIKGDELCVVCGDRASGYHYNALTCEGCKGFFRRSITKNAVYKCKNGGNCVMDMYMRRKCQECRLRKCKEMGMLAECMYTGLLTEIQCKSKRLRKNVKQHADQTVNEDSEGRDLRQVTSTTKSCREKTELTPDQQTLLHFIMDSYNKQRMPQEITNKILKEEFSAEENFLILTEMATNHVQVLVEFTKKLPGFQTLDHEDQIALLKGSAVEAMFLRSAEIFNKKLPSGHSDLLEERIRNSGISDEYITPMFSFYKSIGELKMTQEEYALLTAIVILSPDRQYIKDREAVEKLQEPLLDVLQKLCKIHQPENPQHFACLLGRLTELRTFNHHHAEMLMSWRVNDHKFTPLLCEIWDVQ
T1 sequence (P19793 1-462 partner): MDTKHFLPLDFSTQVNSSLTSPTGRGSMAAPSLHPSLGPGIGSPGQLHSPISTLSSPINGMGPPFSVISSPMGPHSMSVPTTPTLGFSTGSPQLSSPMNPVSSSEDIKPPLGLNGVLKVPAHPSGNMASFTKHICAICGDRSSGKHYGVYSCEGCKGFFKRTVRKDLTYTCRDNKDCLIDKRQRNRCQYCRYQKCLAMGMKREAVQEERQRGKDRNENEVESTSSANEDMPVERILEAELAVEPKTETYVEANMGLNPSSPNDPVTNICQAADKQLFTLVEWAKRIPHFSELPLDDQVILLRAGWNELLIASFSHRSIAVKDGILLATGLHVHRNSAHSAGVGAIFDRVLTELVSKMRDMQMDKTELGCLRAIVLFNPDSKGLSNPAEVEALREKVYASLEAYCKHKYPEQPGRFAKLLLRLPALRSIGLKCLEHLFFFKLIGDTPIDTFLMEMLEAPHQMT

HepG2 cells = experiment: WST-1 assay; format: cell-based; details: 48 h (or 24 h)
Method: (§1) In vitro biological evaluation […]
WST-1 assay (Roche Diagnostics International AG, Rotkreuz, Schweiz) was performed according to manufacturer’s protocol and as described previously. In brief, HepG2 cells were seeded in DMEM high glucose, supplemented with SP (1 mM), penicillin (100 U/mL), streptomycin (100 µg/mL) and 10% FCS in 96-well plates (3∙10^4 cells/well). After 24 h, medium was changed to DMEM high glucose, supplemented with penicillin (100 U/mL), streptomycin (100 µg/mL) and 1% charcoal stripped FCS and cells were incubated with 4 or 16 (final […]
and DMEM/1% DMSO as negative controls. After 48 h (or 24 h), WST reagent (Roche Diagnostics International AG) was added to each well according to manufacturer’s instructions. After 45 min incubation, absorption (450 nm/ reference: 620 nm) was determined with a Tecan Infinite M200 luminometer (Tecan Deutschland GmbH). Each experiment was repeated at least three times in triplicates. […]

AMPKα1 = experiment: Kinase inhibition assay (radiometric or HTRF); format: biochemical; details: 20 µM
PDGF-Rα = experiment: Kinase inhibition assay (radiometric or HTRF); format: biochemical
CaMKK2 = experiment: Kinase inhibition assay (radiometric or HTRF); format: biochemical; details: 20 µM
TGR5 = system: T2, TGR5; experiment: TGR5 assay (Eurofins); format: cell-based; details: 1 and 10 µM
T2 construct: Eurofins (Brussels, Belgium)

AMPKα2 = experiment: Kinase inhibition assay (radiometric or HTRF); format: biochemical; details: 20 µM
PKA = system: PKA; set-up: method as in doi:10.1016/S0960-894X(96)00601-4, PMID 11162439; details: cited from earlier work
TAK1 = experiment: Kinase inhibition assay (radiometric or HTRF); format: biochemical; details: 20 µM
c-Kit = experiment: Kinase inhibition assay (radiometric or HTRF); format: biochemical
RXRα = system: T3, RXRα; experiment: Gal4-DBD-RXRα-LBD hybrid reporter gene assay; format: cell-based, human
T3 construct: expressed in transfected cells; host or cells: HEK293T
Excerpt: The Gal4-fusion receptor plasmids pFA-CMV-hPPARα-LBD[34], pFA-CMV-hPPARγ-LBD[34], pFA-CMV-hPPARδ-LBD[34], pFA-CMV-hLXRα-LBD[35], pFA-CMV-hLXRβ-LBD[35], pFA-CMV-hRXRα-LBD[36], pFA-CMV-hRXRβ-LBD[36], pFA-CMV-hRXRγ-LBD[36], pFA-CMV-hRARα-LBD[36], pFA-CMV-hRARβ-LBD[36], pFA-CMV-hRARγ-LBD[36], pFA-CMV-hVDR-LBD[36] and pFA-CMV-hCAR-LBD[36] coding for the hinge region and ligand binding domain (LBD) of the canonical isoform of the respective nuclear receptor have been reported previously. pFR-Luc (Stratagene) was used as reporter plasmid and pRL-SV40 (Promega) for normalization of transfection efficiency and cell growth.
HEK293T cells were grown in DMEM high glucose, supplemented with 10% FCS, sodium pyruvate (1 mM), penicillin (100 U/mL) and streptomycin (100 μg/mL) at 37 °C and 5% CO2. The day before transfection, HEK293T cells were seeded in 96-well plates (2.5·10^4 cells/well). Before transfection, medium was changed to Opti-MEM without supplements. Transient transfection was carried out using Lipofectamine LTX reagent (Invitrogen) according to the manufacturer’s protocol with pFR-Luc (Stratagene), pRL-SV40 (Promega) and pFA-CMV-hNR-LBD. […] Luminescence was measured with an Infinite M200 luminometer (Tecan Deutschland GmbH) or a Tecan Spark 10 M luminometer (Tecan). […]

[1] = Metabolism assay (liver microsomes); format: in vitro ADME, Sprague−Dawley rats; details: rat liver microsomes, 10 μM
Method: as §1
MgCl2). After 5 min, the reaction was started by the addition of 13 μL of microsome mix from the liver of Sprague−Dawley rats (Invitrogen; 20 mg protein/mL in 0.1 M phosphate buffer) in a shaking water bath at 37 °C.
The reaction was stopped by addition of 250 μL of ice-cold methanol at 0, 15, 30 and 60 min. The samples were diluted with 250 μL of DMSO and centrifuged at 10000 g for 5 min at 4 °C. The supernatants were analyzed and test compound was quantified by HPLC: mobile phase: MeOH 83%/H2O 17%/formic acid 0.1%; flow-rate:
1 mL/min; stationary phase: MultoHigh Phenyl phase, 5 μm, 250 × 4, precolumn, phenyl, 5 μm, 20 × 4; detection wavelength: 330 and 254 nm; injection volume: 50 μL. Control samples were performed to check the stability of 4 or 16 in the reaction mixture: first control was without NADPH, which is needed for the enzymatic activity of the microsomes, second control was with inactivated microsomes (incubated for 20 min at 90 °C), third control was […]
quantified by an external calibration curve, where data are expressed as means ± SEM of single determinations […]
obtained in three independent experiments. […]
as mean percent of remaining compound ± SEM; n=3): 4: 0 min: 100 ± 0%, 15 min: 86 ± 3%, 30 min: 74 ± 1%,

[2] = full-length reporter gene assay, HeLa cells, mean ± SEM, n ≥ 3
[3] = full-length reporter gene assay

CCc1ccc(C(=O)Nc2ccc(C)c(Nc3nccc(-c4cccnc4)n3)c2)cc1.CS(=O)(=O)O.CS(=O)(=O)O.O [compound 12]
Emax (human FXR; read-out: hFXR: max. rel. act.): 7.9% | EC50 (human FXR; [2]): 6.4 ± 0.4 nM | FXR modulatory potency in words (human FXR; [3]): single-digit nanomolar activity

Cc1ccc(NC(=O)c2ccncc2)cc1Nc1nccc(-c2cccnc2)n1 [compound 10]
Emax (human FXR; read-out: hFXR: max. rel. act.): 11.7% | EC50 (human FXR; [2]): 3500 ± 200 nM

Cc1ccc(C(=O)Nc2ccc(C)c(Nc3nccc(-c4cccnc4)n3)c2)cc1 [compound 11]
Emax (human FXR; read-out: hFXR: max. rel. act.): 8.1% | EC50 (human FXR; [2]): 51 ± 1 nM

C[C@H](CCC(=O)O)[C@H]1CC[C@H]2[C@@H]3[C@H](O)C[C@@H]4C[C@H](O)CC[C@]4(C)[C@H]3CC[C@]12C [compound 1, chenodeoxycholic acid, reference compound]
WST-1, mean percent of untreated control (HepG2 cells; HepG2, 50 µM): 88 ± 5%

CS(=O)(=O)O.CS(=O)(=O)O.CS(=O)(=O)O.CS(=O)(=O)O.Cc1ccc(NC(=O)c2ccc3ccccc3c2)cc1Nc1nccc(-c2cccnc2)n1.Cc1ccc(NC(=O)c2ccc3ccccc3c2)cc1Nc1nccc(-c2cccnc2)n1.O.O.O [compound 9]
Emax (human FXR; read-out: hFXR: max. rel. act.): 7.1% | EC50 (human FXR; [2]): 460 ± 10 nM | FXR modulatory potency in words (human FXR; [3]): submicromolar

COc1ccc(C(=O)Nc2ccc(C)c(Nc3nccc(-c4cccnc4)n3)c2)cc1 [compound 15]
Emax (human FXR; relative to FXR full agonist 3 at 3 µM, mean ± SEM, n ≥ 3, read-out: hFXR: max. rel. act. (converted)): 8.4% | EC50 (human FXR; [2]): 1000 ± 100 nM

Cc1ccc(N)cc1Nc1nccc(-c2cccnc2)n1 [compound 17, reference compound]
Emax (human FXR; read-out: hFXR: max. rel. act.): 9.2% | EC50 (human FXR; [2]): 17800 ± 1100 nM

CC(=O)Nc1ccc(C)c(Nc2nccc(-c3cccnc3)n2)c1.CC(=O)Nc1ccc(C)c(Nc2nccc(-c3cccnc3)n2)c1.CS(=O)(=O)O.CS(=O)(=O)O.CS(=O)(=O)O.CS(=O)(=O)O.O [compound 7]
hFXR: EC50 (human FXR; [2]): inactive

Cc1ccc(NC(=O)c2ccc(-c3ccccc3)cc2)cc1Nc1nccc(-c2cccnc2)n1 [compound 14]
Emax (human FXR; read-out: hFXR: max. rel. act.): 7.1% | EC50 (human FXR; [2]): 130 ± 20 nM

CS(=O)(=O)O.CS(=O)(=O)O.CS(=O)(=O)O.CS(=O)(=O)O.Cc1ccc(NC(=O)c2ccccc2)cc1Nc1nccc(-c2cccnc2)n1.Cc1ccc(NC(=O)c2ccccc2)cc1Nc1nccc(-c2cccnc2)n1.O [compound 8]
Emax (human FXR; read-out: hFXR: max. rel. act.): 9% | EC50 (human FXR; [2]): 450 ± 20 nM | FXR modulatory potency in words (human FXR; [3]): submicromolar

Cc1ccc(NC(=O)c2ccc(CN3CCN(C)CC3)cc2)cc1Nc1nccc(-c2cccnc2)n1 [compound 4, imatinib, reference compound]
Inhibition of AMPKα1 (AMPKα1): did not markedly inhibit | WST-1, mean percent of untreated control (HepG2 cells; HepG2, 0.1 µM): 98 ± 9% | WST-1, mean percent of untreated control (HepG2 cells; HepG2, 1 µM): 80 ± 9% | WST-1, mean percent of untreated control (HepG2 cells; HepG2, 10 µM): 78 ± 3% | WST-1, mean percent of untreated control (HepG2 cells; HepG2, 50 µM): 65 ± 1% | WST-1, mean percent of untreated control (HepG2 cells; HepG2, 4 (10 µM) + 1 (50 µM)): 77 ± 7% | Inhibition of PDGF-Rα (PDGF-Rα): potent inhibitor | Inhibition of CaMKK2 (CaMKK2): slight inhibition | TGR5 modulation (agonistic or antagonistic activity) (TGR5): no agonistic or antagonistic activity | Inhibition of AMPKα2 (AMPKα2): did not markedly inhibit | Activity on PKA (PKA): inactive | Inhibition of TAK1 (TAK1): slight inhibition | Inhibition of c-Kit (c-Kit): potent inhibitor | RXR agonistic activity (activation of RXRα-Gal4 chimera receptor) (RXRα): neither activated | mean percent of remaining compound ([1]; 0 min): 100 ± 0% | mean percent of remaining compound ([1]; 15 min): 86 ± 3% | mean percent of remaining compound ([1]; 30 min): 74 ± 1% | mean percent of remaining compound ([1]; 60 min): 61 ± 3%

Cc1ccc(NC(=O)c2ccc(C(C)(C)C)cc2)cc1Nc1nccc(-c2cccnc2)n1 [compound 13]
Emax (human FXR; read-out: hFXR: max. rel. act.): 8.6% | EC50 (human FXR; [2]): 580 ± 70 nM
